According to patent US11166924B2, “N-methyl-d-aspartate receptor allosteric modulators and methods for their use” (Qingdao Primedicine Pharmaceutical Company, Ltd., priority 2016, dated 2021):

Experiments:
GABAR = assay: GABA-induced currents in cultured hippocampal neurons; type: cell-based
Experimental: Whole cell patch-clamp recordings were performed under voltage-clamp mode using an Axopatch 200B or 1D patch-clamp amplifier (Molecular Devices). Whole-cell currents were recorded at a holding potential of −60 mV unless indicated elsewhere, and signals were filtered at 2 kHz, digitized at 10 kHz (Digidata 1322A). Recording pipettes (3-5 MΩ) were filled with the intracellular solution that contained (mM): CsCl 140, HEPES 10, Mg-ATP 4, QX-314 5, pH 7.20; osmolarity, 290-295 mOsm. BAPTA (10 mM) was added in the intracellular solution (otherwise specified). The coverslips were continuously superfused with the extracellular solution containing (mM): NaCl 140, KCl 5.4, HEPES 10, CaCl2 1.3, glucose 20, pH 7.4; osmolarity, 305-315 mOsm. NMDA, GABA or AMPA induced currents were either applied by NMDA, GABA, AMPA either through perfusion fast-step (Warner Instruments). […]
Next, the inventor evaluated the selectivity profile for Npam02 on two other key ionotropic receptors of the central nervous system (CNS): α-amino-3-hydroxy-5-methyl-4-isoxazolepropionic acid receptor AMPAR, which are known to be a non-NMDA type ionotropic transmembrane receptor for glutamate that mediates fast synaptic transmission in the central nervous system (CNS) and GABA receptors which are the principal inhibitory ligand-gated ion channel receptor. […]

hippocampal slices (LTP) = assay: Long-term potentiation (LTP) in hippocampal slices; conditions: mouse hippocampal slices; FIG. 19
Excerpt: 6-8 week old C57/Bl6 mice or rats underwent cervical dislocation followed by decapitation. The brain was immediately transferred to an ice cold NMDG-based cutting solution consisting of: (in mM): 120 NMDG, 2.5 KCl, 1.2 NaH2PO4, 25 NaHCO3, 1.0 CaCl2, 7.0 MgCl2, 2.4 Na-pyruvate, 1.3 Na-ascorbate, 20 D-glucose with pH adjusted to 7.35 using HCl acid (unless stated, all chemicals and drugs were purchased from Sigma or BioShop, Canada). The hippocampus was dissected out and transverse hippocampal slices (400 μm) were obtained using a manual tissue chopper (Stoelting, Wood Dale, Ill., USA). Slices recovered in a heated (30° C.) incubating chamber for 1 hr which contained ACSF composed of (in mM): 124 NaCl, 3 KCl, 1.25 NaH2PO4, 1 MgSO47H2O, 2 CaCl2), 26 NaHCO3 and 15 D-glucose which was bubbled continuously with carbogen (95% O2/5% CO2) (pH to 7.3). After 30 additional minutes at room temperature, slices were transferred to a submerged recording chamber and were perfused continuously with carbogenated ACSF (2-3 ml/min). Whole-cell recordings of CA1 pyramidal neurons were performed using the “blind” method with a MultiClamp 700B amplifier. EPSCs (excitatory post synaptic currents) were elicited by stimulating the SC pathway. For isolation of NMDAR currents, cells were voltage clamped at +40 mV. […]

GluN1/GluN2A^P178G = molecular target: T1, GluN1/GluN2A^P178G (Rattus norvegicus, UniProt P35439+Q00959, P178G); assay: Patch clamp in HEK293 cells expressing mutant GluN1/GluN2A P178G; type: cell-based
T1 construct: expressed in transfected cells; host or cells: HEK293
Experimental: Whole cell patch-clamp recordings were performed under voltage-clamp mode using an Axopatch 200B or 1D patch-clamp amplifier (Molecular Devices). Whole-cell currents were recorded at a holding potential of −60 mV unless indicated elsewhere, and signals were filtered at 2 kHz, digitized at 10 kHz (Digidata 1322A). Recording pipettes (3-5 MΩ) were filled with intracellular solution containing (mM): CsCl 140, HEPES 10, Mg-ATP 4, QX-314 5, pH 7.20; osmolarity, 290-295 mOsm. BAPTA (10 mM) was added in the intracellular solution (unless otherwise specified). The coverslips were continuously superfused with extracellular solution containing (mM): NaCl 140, KCl 5.4, HEPES 10, CaCl2 1.3, glucose 20, pH 7.4; osmolarity, 305-315 mOsm. NMDA-induced currents were applied by NMDA through perfusion fast-step (Warner Instruments). With perfusion fast-step system, NMDA application was achieved by using a two-square barrel glass tubing and depending on the age of the cultured neurons, CNQX (10 μM), TTX (0.5 μM) or BIC (10 μM) were added in the extracellular solution to minimize the activation of ionotropic glutamate receptors and voltage-gated sodium channels, respectively. All experiments were performed at room temperature. Recordings from at least six HEK293 cells/neurons were performed for all active compounds. […]

T1 sequence (Q00959 23-1464 P178G, other chains not shown): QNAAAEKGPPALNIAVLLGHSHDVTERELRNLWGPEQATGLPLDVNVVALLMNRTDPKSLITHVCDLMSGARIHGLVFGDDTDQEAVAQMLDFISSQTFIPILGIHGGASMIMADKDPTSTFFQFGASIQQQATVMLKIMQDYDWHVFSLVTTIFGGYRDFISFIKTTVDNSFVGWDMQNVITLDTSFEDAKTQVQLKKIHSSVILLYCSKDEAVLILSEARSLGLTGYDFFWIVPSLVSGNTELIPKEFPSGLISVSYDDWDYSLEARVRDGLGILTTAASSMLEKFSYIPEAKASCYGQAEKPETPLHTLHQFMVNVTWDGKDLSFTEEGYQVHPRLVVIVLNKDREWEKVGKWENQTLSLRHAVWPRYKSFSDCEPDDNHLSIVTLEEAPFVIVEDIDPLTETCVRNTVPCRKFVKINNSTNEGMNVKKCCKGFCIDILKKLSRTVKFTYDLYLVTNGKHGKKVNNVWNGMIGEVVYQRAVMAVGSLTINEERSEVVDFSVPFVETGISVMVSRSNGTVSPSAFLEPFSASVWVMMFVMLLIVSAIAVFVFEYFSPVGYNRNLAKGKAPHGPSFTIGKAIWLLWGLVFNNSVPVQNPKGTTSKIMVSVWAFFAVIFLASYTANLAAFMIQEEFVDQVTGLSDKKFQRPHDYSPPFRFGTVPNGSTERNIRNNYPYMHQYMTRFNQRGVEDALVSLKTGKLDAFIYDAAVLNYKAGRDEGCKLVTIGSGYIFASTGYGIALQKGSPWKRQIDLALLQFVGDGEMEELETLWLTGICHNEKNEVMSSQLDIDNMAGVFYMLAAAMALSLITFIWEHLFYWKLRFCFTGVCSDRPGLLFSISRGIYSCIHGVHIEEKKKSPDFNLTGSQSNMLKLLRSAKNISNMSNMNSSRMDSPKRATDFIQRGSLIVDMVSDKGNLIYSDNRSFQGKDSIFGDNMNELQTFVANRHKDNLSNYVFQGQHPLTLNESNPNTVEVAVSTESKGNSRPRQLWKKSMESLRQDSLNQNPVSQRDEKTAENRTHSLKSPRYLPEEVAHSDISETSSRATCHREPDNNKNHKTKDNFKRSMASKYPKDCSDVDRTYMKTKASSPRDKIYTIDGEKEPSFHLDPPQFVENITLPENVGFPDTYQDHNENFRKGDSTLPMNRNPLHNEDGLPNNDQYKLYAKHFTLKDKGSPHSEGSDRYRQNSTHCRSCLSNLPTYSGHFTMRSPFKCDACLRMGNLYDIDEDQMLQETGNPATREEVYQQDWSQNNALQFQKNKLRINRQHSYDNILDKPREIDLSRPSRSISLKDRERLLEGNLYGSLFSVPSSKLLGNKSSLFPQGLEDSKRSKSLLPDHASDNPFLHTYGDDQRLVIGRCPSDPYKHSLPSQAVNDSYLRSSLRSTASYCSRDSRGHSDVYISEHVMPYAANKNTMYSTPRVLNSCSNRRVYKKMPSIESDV

Structure (SMILES)	Effect on GABAR mediated currents (GABAR)	Induction of LTP (hippocampal slices (LTP))	Relative potentiation (GluN1/GluN2A^P178G; Table 3)	Net Difference potentiation (GluN1/GluN2A^P178G; normalized to wild-type)
COc1cccc(/C=N/NC(=O)c2ccccc2C)c1O [Npam02, (E)-N′-(2-hydroxy-3-methoxybenzylidene)-2-methylbenzohydrazide]	no observable effects			
CCOc1cc(Cl)c(Cl)c(/C=N/NC(=O)c2ccccc2Br)c1O [Npam43, (E)-2-bromo-N′-(2,3-dichloro-5-ethoxy-6-hydroxybenzylidene)benzohydrazide]		can facilitate the induction of LTP	95.5 ± 3.8%	−54.3 ± 0.42%
